According to ChEMBL document CHEMBL4732259, “Imidazo[1,2-c]pyrimidin-5(6H)-one inhibitors of CDK2: Synthesis, kinase inhibition and co-crystal structure” (Eur J Med Chem, 2021):
Calls of active or inactive are those of the source. The calls are words filed in the database; no cut-off is given here.

Legend:
[1] = test system: MOLM-13; assay: Antiproliferative activity against human MOLM-13 cells assessed as cell viability at 10 uM incubated for 72 hrs by resazurin assay; type: functional; settings: read-out: Activity
[2] = molecular target: T1, Cyclin-dependent kinase 2/cyclin E1 (Homo sapiens, UniProt P24941); assay: Inhibition of CDK2/cyclin E (unknown origin) using peptide substrate in presence of [gamma33P]ATP by image analyser; type: protein-complex assay
[3] = test system: K562; assay: Antiproliferative activity against human K562 cells assessed as cell viability at 10 uM incubated for 72 hrs by resazurin assay; type: functional; settings: read-out: Activity
[4] = test system: MV4-11; assay: Antiproliferative activity against human MV4-11 cells assessed as cell viability at 10 uM incubated for 72 hrs by resazurin assay; type: functional; settings: read-out: Activity
[5] = molecular target: T1, Cyclin-dependent kinase 2/cyclin E1; assay: Inhibition of CDK2/cyclin E (unknown origin) expressed in baculovirus infected Sf9 cells using histone H1 as substrate in presence of [gamma33P]ATP by image analyser
[6] = molecular target: T2, Cyclin-dependent kinase 2 (Homo sapiens, UniProt P24941); assay: Binding affinity to CDK2 (unknown origin) assessed as change in enthalpy by isothermal titration calorimetry
[7] = molecular target: Cyclin-dependent kinase 1/cyclin B1 (Homo sapiens, UniProt P06493); assay: Inhibition of CDK1/cyclin B (unknown origin) using peptide substrate in presence of [gamma33P]ATP by image analyser; type: protein-complex assay
Sequence of Cyclin-dependent kinase 1/cyclin B1 (P06493 whole entry): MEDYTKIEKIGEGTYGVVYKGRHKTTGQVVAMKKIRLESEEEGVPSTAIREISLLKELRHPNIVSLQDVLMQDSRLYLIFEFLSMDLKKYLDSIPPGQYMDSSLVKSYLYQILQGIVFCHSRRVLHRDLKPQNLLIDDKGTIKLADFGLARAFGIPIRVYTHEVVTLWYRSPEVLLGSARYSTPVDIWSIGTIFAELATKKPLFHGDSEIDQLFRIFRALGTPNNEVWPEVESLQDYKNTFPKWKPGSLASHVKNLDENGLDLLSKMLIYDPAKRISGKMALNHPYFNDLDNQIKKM
Sequence of Cyclin-dependent kinase 1/cyclin B1 (P14635 whole entry, further chain): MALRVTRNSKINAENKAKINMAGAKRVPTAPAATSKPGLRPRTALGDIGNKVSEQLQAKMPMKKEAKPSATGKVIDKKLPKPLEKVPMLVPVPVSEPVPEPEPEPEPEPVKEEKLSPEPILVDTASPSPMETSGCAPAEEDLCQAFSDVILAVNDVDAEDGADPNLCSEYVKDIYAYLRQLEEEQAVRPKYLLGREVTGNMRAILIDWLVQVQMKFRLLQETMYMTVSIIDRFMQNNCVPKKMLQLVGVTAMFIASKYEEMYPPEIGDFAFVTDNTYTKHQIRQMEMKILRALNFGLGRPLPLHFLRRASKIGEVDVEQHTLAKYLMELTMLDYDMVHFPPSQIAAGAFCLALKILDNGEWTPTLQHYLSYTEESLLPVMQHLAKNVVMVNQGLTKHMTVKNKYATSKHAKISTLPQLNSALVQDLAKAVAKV

[8] = molecular target: Cyclin-dependent kinase 4/cyclin D1 (Homo sapiens, UniProt P11802); assay: Inhibition of CDK4/cyclin D1 (unknown origin) using peptide substrate in presence of [gamma33P]ATP by image analyser; type: protein-complex assay
Sequence of Cyclin-dependent kinase 4/cyclin D1 (P11802 whole entry): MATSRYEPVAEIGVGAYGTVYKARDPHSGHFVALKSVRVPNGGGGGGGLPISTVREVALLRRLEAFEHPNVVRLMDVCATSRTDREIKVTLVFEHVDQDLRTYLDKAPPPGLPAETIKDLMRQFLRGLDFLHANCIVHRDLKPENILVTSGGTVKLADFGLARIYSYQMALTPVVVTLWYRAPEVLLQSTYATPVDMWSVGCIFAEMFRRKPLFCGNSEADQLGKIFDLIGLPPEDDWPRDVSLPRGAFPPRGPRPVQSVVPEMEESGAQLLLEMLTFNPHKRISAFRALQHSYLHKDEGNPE
Sequence of Cyclin-dependent kinase 4/cyclin D1 (P24385 whole entry, further chain): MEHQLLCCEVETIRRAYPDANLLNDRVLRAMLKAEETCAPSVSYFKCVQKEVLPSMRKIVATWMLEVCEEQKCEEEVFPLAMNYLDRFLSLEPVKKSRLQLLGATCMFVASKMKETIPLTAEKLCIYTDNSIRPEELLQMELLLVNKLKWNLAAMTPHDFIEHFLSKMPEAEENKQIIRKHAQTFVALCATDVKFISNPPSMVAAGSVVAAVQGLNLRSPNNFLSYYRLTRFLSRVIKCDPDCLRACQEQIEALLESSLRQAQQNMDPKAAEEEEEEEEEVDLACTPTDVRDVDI

[9] = test system: MV4-11; assay: Antiproliferative activity against human MV4-11 cells assessed as growth inhibition after 72 hrs by resazurin assay; type: functional
[10] = test system: MV4-11; assay: Induction of cell cycle arrest in human MV4-11 cells assessed as reduction in S phase cells at high dose after 24 to 72 hrs by propidium iodide staining based flow cytometry analysis; type: functional; settings: time 24-72 hrs
[11] = molecular target: CDK9/cyclin T1 (Homo sapiens, UniProt P50750); assay: Inhibition of CDK9/cyclin T1 (unknown origin) using peptide substrate in presence of [gamma33P]ATP by image analyser; type: protein-complex assay
Sequence of CDK9/cyclin T1 (O60563 whole entry): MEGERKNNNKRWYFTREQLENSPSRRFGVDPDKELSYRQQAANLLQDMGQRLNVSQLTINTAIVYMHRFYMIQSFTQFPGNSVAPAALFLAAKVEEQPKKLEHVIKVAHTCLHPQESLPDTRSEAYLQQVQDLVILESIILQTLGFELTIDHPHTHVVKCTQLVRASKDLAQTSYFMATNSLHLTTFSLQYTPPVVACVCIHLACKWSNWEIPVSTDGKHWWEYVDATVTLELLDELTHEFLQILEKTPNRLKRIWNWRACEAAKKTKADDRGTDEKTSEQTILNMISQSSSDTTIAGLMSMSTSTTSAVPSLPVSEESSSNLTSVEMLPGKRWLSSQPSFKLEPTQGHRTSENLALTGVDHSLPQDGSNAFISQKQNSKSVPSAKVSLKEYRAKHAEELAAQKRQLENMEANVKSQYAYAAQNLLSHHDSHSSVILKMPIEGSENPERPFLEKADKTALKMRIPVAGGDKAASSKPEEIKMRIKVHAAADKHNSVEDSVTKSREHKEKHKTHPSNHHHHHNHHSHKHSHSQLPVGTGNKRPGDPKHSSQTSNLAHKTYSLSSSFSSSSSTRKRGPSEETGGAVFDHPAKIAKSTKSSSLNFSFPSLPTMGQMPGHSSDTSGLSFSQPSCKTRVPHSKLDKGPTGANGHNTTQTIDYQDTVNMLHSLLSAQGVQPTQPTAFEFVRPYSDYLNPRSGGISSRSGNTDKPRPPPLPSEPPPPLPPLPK
Sequence of CDK9/cyclin T1 (P50750 whole entry): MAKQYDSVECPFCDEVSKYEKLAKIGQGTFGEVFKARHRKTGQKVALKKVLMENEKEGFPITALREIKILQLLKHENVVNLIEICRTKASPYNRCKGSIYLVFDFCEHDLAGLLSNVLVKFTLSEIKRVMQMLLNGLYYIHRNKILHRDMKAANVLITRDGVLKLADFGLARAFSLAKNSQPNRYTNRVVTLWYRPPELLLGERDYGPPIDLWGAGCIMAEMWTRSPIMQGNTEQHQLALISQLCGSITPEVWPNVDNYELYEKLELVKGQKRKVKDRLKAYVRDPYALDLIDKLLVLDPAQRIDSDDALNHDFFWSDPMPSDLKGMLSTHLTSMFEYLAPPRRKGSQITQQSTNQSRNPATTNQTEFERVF

[12] = molecular target: T2, Cyclin-dependent kinase 2; assay: Binding affinity to CDK2 (unknown origin) by isothermal titration calorimetry
[13] = molecular target: CDK2/Cyclin A2 (Homo sapiens, UniProt P24941); assay: Inhibition of CDK2/cyclin A2 (unknown origin) using peptide substrate in presence of [gamma33P]ATP by image analyser; type: protein-complex assay
[14] = test system: MOLM-13; assay: Antiproliferative activity against human MOLM-13 cells assessed as growth inhibition after 72 hrs by resazurin assay; type: functional
[15] = molecular target: T2, Cyclin-dependent kinase 2; assay: Binding affinity to CDK2 (unknown origin) assessed as change in entropy by isothermal titration calorimetry
[16] = Inhibition of CDK3/cyclin A2 (unknown origin) using peptide substrate in presence of [gamma33P]ATP by image analyser; set-up: species or system Homo sapiens
[17] = test system: MV4-11; assay: Induction of cell cycle arrest in human MV4-11 cells assessed as accumulation at G1 phase after 24 to 72 hrs by propidium iodide staining based flow cytometry analysis; type: functional; settings: dose 6-100 µM, time 24-72 hrs
[18] = molecular target: T2, Cyclin-dependent kinase 2
Description: Binding affinity to CDK2 (unknown origin) assessed as gibbs free energy change by isothermal titration calorimetry

[19] = test system: MV4-11; assay: Induction of cell cycle arrest in human MV4-11 cells assessed as accumulation at sub-G1 phase at high dose after 72 hrs by propidium iodide staining based flow cytometry analysis; type: functional
[20] = molecular target: Cyclin-dependent kinase 4/cyclin D1 (Homo sapiens) (UniProt P11802+P24385); assay: Inhibition of CDK4/cyclin D1 (unknown origin) at 20 uM using peptide substrate in presence of [gamma33P]ATP by image analyser relative to control; type: protein-complex assay

| SMILES | IC50 [2] | viability at 10 µM [1] | viability at 10 µM [3] | viability at 10 µM [4] | further results |
| --- | --- | --- | --- | --- | --- |
| O=c1[nH]cc(-c2ccc(-c3c[nH]c(=O)n4ccnc34)cc2)c2nccn12 | > 12.5 µM | 87.5% | 111% | 91.4% |  |
| CC(=O)OCCCn1cc(C2CCCCC2)c2nccn2c1=O | 7.7 µM | 93.8% | 101% | 88.5% |  |
| CCOC(=O)Cn1cc(C2CCCCC2)c2nccn2c1=O | > 50 µM | 90.3% | 110% | 93.3% |  |
| O=c1[nH]cc(C2CCCCC2)c2ncc(I)n12 | 14.2 µM | 70.7% | 100% | 78.5% |  |
| O=c1[nH]cc(-c2ccccc2)c2nccn12 |  | 87.4% | 108% | 89.2% | IC50 [5]: 6.6 µM |
| O=C1c2ccccc2C(=O)N1Cn1cc(C2CCCCC2)c2nccn2c1=O | > 50 µM | 91.3% | 107% | 87.4% |  |
| O=c1[nH]cc(C2CCCCC2)c2nc(I)cn12 | 6.5 µM | 33.8% | 101% | 40.1% |  |
| O=c1[nH]cc(-c2ccccc2)c2ncc(Br)n12 | > 50 µM | 82.7% | 109% | 78.6% |  |
| O=c1[nH]cc(-c2ccccc2)c2nc(I)c(I)n12 | > 12.5 µM | 56.7% | 113% | 63.1% |  |
| O=c1[nH]cc(-c2ccccc2)c2ncc(I)n12 | > 25 µM | 77.4% | 109% | 72.6% |  |
| O=C(O)Cn1cc(C2CCCCC2)c2nccn2c1=O | > 50 µM | 90.3% | 108% | 94.7% |  |
| O=c1[nH]cc(C2=CCCC2)c2nccn12 | 4.9 µM | 93.4% | 106% | 88.2% |  |
| O=c1[nH]cc(/C=C/c2ccccc2)c2nccn12 | 17.8 µM | 55.6% | 107% | 42.3% |  |
| COc1ccc(-c2cn3c(=O)[nH]cc(F)c3n2)cc1 | > 25 µM | 51.8% | 109% | 42.9% |  |
| O=c1[nH]cc(-c2ccccc2)c2nc(Br)cn12 | 24.4 µM | 83.9% | 105% | 77.2% |  |
| COc1ccc(-c2cn3c(=O)[nH]cc(-c4ccc(OC)cc4)c3n2)cc1 | > 25 µM | 15.3% | 36.2% | 52% |  |
| O=c1[nH]cc(-c2ccccc2)c2nc(I)cn12 | > 25 µM | 63.3% | 110% | 62.6% |  |
| O=c1[nH]cc(-c2ccsc2)c2nccn12 | 8.9 µM | 87.8% | 105% | 84.9% |  |
| O=c1[nH]cc(-c2ccccc2)c2nc(-c3ccccc3)cn12 | > 50 µM | 83.5% | 105% | 84.1% |  |
| NS(=O)(=O)c1ccc(Nc2nc(OCC3CCCCC3)c3nc[nH]c3n2)cc1 |  | 66% | 103% | 32.1% |  |

More lines, main results first:

| IC50 [2] | SMILES | viability at 10 µM [1] | viability at 10 µM [3] | viability at 10 µM [4] | further results |
| --- | --- | --- | --- | --- | --- |
| 4.7 µM | Cn1cc(C2CCCCC2)c2nccn2c1=O | 88.3% | 105% | 89.3% |  |
| 0.66 µM | O=c1[nH]cc(C2CCCCC2)c2nccn12 | 84.8% | 103% | 82.2% | deltaH [6]: -11.4 kcal/mol; IC50 [7]: 4.3 µM; IC50 [8]: 14.3 µM; GI50 [9]: 50 µM; Activity [10]: Active; IC50 [11]: 10 µM; Kd [12]: 4.1 µM; IC50 [13]: 0.68 µM; GI50 [14]: 50 µM; -TdeltaS [15]: 3.92 kcal/mol; IC50 [16]: 2.72 µM; Activity [17]: Dose-dependent effect; deltaG [18]: -7.48 kcal/mol; Activity [19]: Active; inhibition [20]: 46% |
| 4.6 µM | O=c1[nH]cc(C2CCCCC2)c2nc(I)c(I)n12 | 53.9% | 99.5% | 57% |  |
| 3 µM | O=c1n(CCCO)cc(C2CCCCC2)c2nccn12 | 94.1% | 104% | 91.7% |  |
| 4 µM | O=c1[nH]cc(C2CCCC2)c2nccn12 | 90.5% | 105% | 90.2% |  |
| 1.5 µM | O=c1n(CCO)cc(C2CCCCC2)c2nccn12 | 91.9% | 103% | 88.4% |  |
| 0.031 µM | NS(=O)(=O)c1ccc(Nc2nc(-c3cccc(-c4ccccc4)c3)c3nc[nH]c3n2)cc1 | 98.3% | 94.5% | 62.8% | IC50 [7]: 4.3 µM; IC50 [8]: > 20 µM; IC50 [11]: 9.4 µM; IC50 [13]: 0.022 µM; IC50 [16]: 2.87 µM |
| 1.2 µM | O=c1[nH]cc(C2=CCCCC2)c2nccn12 | 88.7% | 101% | 80.6% |  |
| 1.5 µM | O=c1[nH]cc(-c2ccc(O)cc2Cl)c2nccn12 | 86.2% | 105% | 85% |  |
| 4.8 µM | O=c1[nH]cc(-c2cccc(O)c2)c2nccn12 | 85.6% | 104% | 82% |  |
